# From PubChem BioAssay (NCI)
#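 96-well plates; 48 h exposure; 5 concentrations. Endpoints by linear interpolation between flanking doses. Not reached: highest tested concentration assigned. GI50 is the concentration that inhibits growth by half. The concentration for full growth arrest is given as TGI.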
# How the values were obtained:
# Assay in all cases: NCI-60 cell line screen, 48 h
# U251 CNS = tested on: U251 CNS
# BT-549 breast = tested on: BT-549 breast
# NCI-H226 lung = tested on: NCI-H226 lung
# UACC-257 melanoma = tested on: UACC-257 melanoma
# SF-295 CNS = tested on: SF-295 CNS
# ACHN renal = tested on: ACHN renal
# T-47D breast = tested on: T-47D breast
# A549 NSCLC = tested on: A549 NSCLC
# UACC-62 melanoma = tested on: UACC-62 melanoma
# SK-MEL-2 melanoma = tested on: SK-MEL-2 melanoma
# LOX IMVI melanoma = tested on: LOX IMVI melanoma
# HCC-2998 colon = tested on: HCC-2998 colon
# HL-60(TB) leukemia = tested on: HL-60(TB) leukemia
# K-562 leukemia = tested on: K-562 leukemia
# KM12 colon = tested on: KM12 colon
# UO-31 renal = tested on: UO-31 renal
# NCI-H460 lung = tested on: NCI-H460 lung
# DU-145 prostate = tested on: DU-145 prostate
# HOP-62 NSCLC = tested on: HOP-62 NSCLC
# OVCAR-4 ovarian = tested on: OVCAR-4 ovarian
# SK-MEL-5 melanoma = tested on: SK-MEL-5 melanoma
# A498 renal = tested on: A498 renal
# MDA-MB-231 breast = tested on: MDA-MB-231 breast
# HCT-15 colon = tested on: HCT-15 colon
# SR leukemia = tested on: SR leukemia
smiles,measurement,setting,value
COc1cc(/C=N/Nc2ccnc3cc(Cl)ccc23)cc(OC)c1O,GI50,U251 CNS,1810 nM
same,TGI,U251 CNS,3.26 µM
same,GI50,BT-549 breast,1750 nM
same,TGI,BT-549 breast,3.27 µM
same,GI50,NCI-H226 lung,1790 nM
same,TGI,NCI-H226 lung,3.67 µM
same,GI50,UACC-257 melanoma,1770 nM
same,TGI,UACC-257 melanoma,3.3 µM
same,GI50,SF-295 CNS,1790 nM
same,TGI,SF-295 CNS,3.32 µM
same,GI50,ACHN renal,1830 nM
same,TGI,ACHN renal,3.23 µM
same,GI50,T-47D breast,1800 nM
same,TGI,T-47D breast,3.9 µM
same,GI50,A549 NSCLC,1740 nM
same,TGI,A549 NSCLC,3.21 µM
same,GI50,UACC-62 melanoma,1710 nM
same,TGI,UACC-62 melanoma,3.25 µM
same,GI50,SK-MEL-2 melanoma,16.3 µM
same,TGI,SK-MEL-2 melanoma,32.8 µM
same,GI50,LOX IMVI melanoma,2150 nM
same,TGI,LOX IMVI melanoma,3.65 µM
same,GI50,HCC-2998 colon,1730 nM
same,TGI,HCC-2998 colon,3.23 µM
same,GI50,HL-60(TB) leukemia,1890 nM
same,TGI,HL-60(TB) leukemia,3.86 µM
same,GI50,K-562 leukemia,1630 nM
same,TGI,K-562 leukemia,3.46 µM
same,GI50,KM12 colon,2390 nM
same,TGI,KM12 colon,6.05 µM
same,GI50,UO-31 renal,1690 nM
same,TGI,UO-31 renal,3.12 µM
same,GI50,NCI-H460 lung,2050 nM
same,TGI,NCI-H460 lung,3.73 µM
same,GI50,DU-145 prostate,1900 nM
same,TGI,DU-145 prostate,3.61 µM
same,GI50,HOP-62 NSCLC,1690 nM
same,TGI,HOP-62 NSCLC,3.13 µM
same,GI50,OVCAR-4 ovarian,1850 nM
same,TGI,OVCAR-4 ovarian,3.63 µM
same,GI50,SK-MEL-5 melanoma,1770 nM
same,TGI,SK-MEL-5 melanoma,3.17 µM
same,GI50,A498 renal,18.9 µM
same,TGI,A498 renal,38.5 µM
same,GI50,MDA-MB-231 breast,2050 nM
same,TGI,MDA-MB-231 breast,4.05 µM
same,GI50,HCT-15 colon,1780 nM
same,TGI,HCT-15 colon,3.43 µM
same,GI50,SR leukemia,1900 nM
same,TGI,SR leukemia,4.72 µM
